“And” between values parts separate entries of the source, which are not always exact repeats. Identical values can stand only once. Like-named read-outs stand apart in the source and are kept apart here.
Assays:
[1] = biological target: T1, CAI (Homo sapiens, UniProt P00915); test: Thermal shift assay (TSA), recombinant CAI; type: binding; details: 37 °C, pH 7.0, observed (not intrinsic)
T1 construct: made in house; host or cells: E. coli

[2] = biological target: T2, CAII (Homo sapiens, UniProt P00918); test: Thermal shift assay (TSA), recombinant CAII; type: binding; details: 37 °C, pH 7.0, observed (not intrinsic)
T2 construct: made in house; host or cells: E. coli
Experimental: (§1) The binding affinities of all fluorescein-containing compounds were determined for all 12 catalytically active CA isozymes by the thermal shift assay (TSA). […] However, the SFA technique cannot determine the affinities lower than the enzyme concentration used in the assay. […] In addition, we used isothermal titration calorimetry (ITC), the standard assay to determine affinity and enthalpy of protein–ligand binding. […] Therefore, ITC was used only to determine the enthalpy of interaction and confirm the ordering of compound affinities.
(§2) All twelve catalytically active human CA isozymes were prepared recombinantly as previously described. Isozymes CAIX, CAXII, and CAXIV were the catalytic domains of the proteins[14],[38]. All isozymes were expressed in E. coli except CAIX that has been prepared in mammalian cells. The proteins were chromatographically purified on ion-exchange or benzene sulfonamide containing affinity columns. Protein MW was confirmed by mass spectrometry with 1 Da precision as predicted from gene sequence.
(§3) Compound affinities for the twelve catalytically active CA isozymes were determined by the thermal shift assay as previously described[30],[39]. Protein solutions containing 1,8-anilinonaphthalenesulfonate fluorescent probe were heated from 25 to 100 °C at a rate of one degree per minute while following the fluorescence of the probe. The temperature scanning curves provided the melting temperature Tm of the protein. The Tm has a distinct dependence on the concentration of a compound. Stronger binders shift the Tm to a greater extent than the weak binders. The Tm dependencies on compound concentration were fit to obtain the affinity Kd[40].

[3] = biological target: T3, CAIII (Homo sapiens, UniProt P07451); test: Thermal shift assay (TSA), recombinant CAIII; type: binding; details: 37 °C, pH 7.0, observed (not intrinsic)
T3 construct: made in house; host or cells: E. coli
Experimental: as §1, §2, §3

[4] = biological target: T4, CAIV (Homo sapiens, UniProt P22748); test: Thermal shift assay (TSA), recombinant CAIV; type: binding; details: 37 °C, pH 7.0, observed (not intrinsic)
T4 construct: made in house; host or cells: E. coli

[5] = biological target: T5, CAVA (Homo sapiens, UniProt P35218); test: Thermal shift assay (TSA), recombinant CAVA; type: binding; details: 37 °C, pH 7.0, observed (not intrinsic)
T5 construct: made in house; host or cells: E. coli
Experimental: as §1, §2, §3

[6] = biological target: T6, CAVB (Homo sapiens, UniProt Q9Y2D0); test: Thermal shift assay (TSA), recombinant CAVB; type: binding; details: 37 °C, pH 7.0, observed (not intrinsic)
T6 construct: made in house; host or cells: E. coli

[7] = biological target: T7, CAVI (Homo sapiens, UniProt P23280); test: Thermal shift assay (TSA), recombinant CAVI; type: binding; details: 37 °C, pH 7.0, observed (not intrinsic)
T7 construct: made in house; host or cells: E. coli
Experimental: as §1, §2, §3

[8] = biological target: T8, CAVII (Homo sapiens, UniProt P43166); test: Thermal shift assay (TSA), recombinant CAVII; type: binding; details: 37 °C, pH 7.0, observed (not intrinsic)
T8 construct: made in house; host or cells: E. coli

[9] = biological target: T9, catalytic domain of recombinant human CAIX (Homo sapiens, UniProt Q16790); test: Thermal shift assay (TSA), recombinant CAIX catalytic domain; type: binding
T9 construct: Isozymes CAIX, CAXII, and CAXIV were the catalytic domains of the proteins; made in house; host or cells: mammalian cells

[10] = biological target: T10, CAXII (Homo sapiens, UniProt O43570); test: Thermal shift assay (TSA), recombinant CAXII; type: binding; details: 37 °C, pH 7.0, observed (not intrinsic)
T10 construct: Isozymes CAIX, CAXII, and CAXIV were the catalytic domains of the proteins; made in house; host or cells: E. coli
Experimental: as §1, §2, §3

[11] = biological target: T11, CAXIII (Homo sapiens, UniProt Q8N1Q1); test: Thermal shift assay (TSA), recombinant CAXIII; type: binding; details: 37 °C, pH 7.0, observed (not intrinsic)
T11 construct: made in house; host or cells: E. coli

[12] = biological target: T12, CAXIV (Homo sapiens, UniProt Q9ULX7); test: Thermal shift assay (TSA), recombinant CAXIV; type: binding; details: 37 °C, pH 7.0, observed (not intrinsic)
T12 construct: Isozymes CAIX, CAXII, and CAXIV were the catalytic domains of the proteins; made in house; host or cells: E. coli

[13] = tested on: CA activity in hypoxic HeLa WT cells; test: CA activity by gas-analysis mass spectrometry in live hypoxic HeLa WT cells; type: cell-based, human; details: Fig. 7A
Experimental: (§4) Catalytic activity of CA in hypoxic human cervical adenocarcinoma (HeLa) cells was determined by monitoring the ^18O depletion of doubly labeled ^13C^18O2 through several hydration and dehydration steps with a quadrupole mass spectrometer (OmniStar GSD 320; Pfeiffer Vacuum, Asslar, Germany) as previously described[16],[51]. HeLa cells were cultured in Dulbecco’s Modified Eagle’s Medium–high glucose (D5671; Sigma Aldrich, Schnelldorf, Germany), supplemented with 10% fetal calf serum and 1% penicillin / streptomycin. The cell line was cultured under hypoxia (1% O2) for three days prior to measurements. Cells were detached from the plate with Accumax Cell Detachment Solution (ACM-1F; Capricorn Scientific, Ebsdorfergrund, Germany), washed and resuspended in HEPES-buffered saline (143 mM NaCl, 5 mM KCl, 2 mM CaCl2, 1 mM MgSO4, 1 mM Na2HPO4, 10 mM HEPES, pH 7.2). Approximately 3 × 10^6 cells, dissolved in 5 mL of HEPES-buffered saline (pH 7.2, RT), were used for every single measurement. […] For every measurement, the non-catalyzed reaction was determined for 12 min in the presence of inhibitor, before cell suspension was added to the measuring cuvette and the catalyzed reaction was determined for 12 min. […] IC50 values were determined by Hill1 fit using OriginPro 8.6 (OriginLab Corporation). CA enzymatic activity in units (U) was calculated as defined by Badger and Price[52]. […]

[14] = tested on: CA activity in hypoxic HeLa CAIX-KO cells; test: CA activity by gas-analysis mass spectrometry in live hypoxic HeLa CAIX-KO cells; type: cell-based, human
Experimental: as §4

[15] = tested on: hypoxic HeLa cells; test: XTT cell viability assay; type: cell-based, human; details: up to 1 µM, 3 h
Experimental: Potential cytotoxic effects on HeLa cells were determined by XTT assay. The XTT was carried out as previously described by Scudiero et al.[53]. HeLa cells were cultured under hypoxia (1% O2) for three days prior to measurements. Cells were detached from the plate with Accumax Cell Detachment Solution (ACM-1F; Capricorn Scientific, Ebsdorfergrund, Germany), washed and resuspended in HEPES-buffered saline (143 mM NaCl, 5 mM KCl, 2 mM CaCl2, 1 mM MgSO4, 1 mM Na2HPO4, 10 mM HEPES, pH 7.2). For each measurement, 100,000 cells were incubated with 1 nM or 1 µM of GZ18-23 for 3 h prior to adding the XTT (No. 38450, SERVA Electrophoresis GmbH, Heidelberg, Germany) / electron coupling reagent (PMS; No. 32030, SERVA). XTT-specific absorbance was measured at 492 nm using a microplate reader (Tecan Infinite F200; Tecan Trading AG, Männedorf, Switzerland). Background absorption was measured at 690 nm. Cells, which were not incubated in GZ18-23, were used as control (100%).

[16] = biological target: T13, CAIX expressed on live HeLa cells (Homo sapiens, UniProt Q16790); test: Competition of unlabeled compound with 10 nM GZ19-32 on hypoxic HeLa cells (competitive binding model); type: cell-based
T13 construct: recombinant CAIX and endogenous CAIX expressed on the cell surface; endogenous in cells; host or cells: HeLa (WT), grown under hypoxia (1% O2)

[17] = biological target: CAIX expressed on live A549 cells (Homo sapiens, UniProt Q16790); test: Competition of unlabeled compound with 10 nM GZ19-32 on hypoxic A549 cells (competitive binding model)

T10 sequence (O43570 30-289 limits assumed): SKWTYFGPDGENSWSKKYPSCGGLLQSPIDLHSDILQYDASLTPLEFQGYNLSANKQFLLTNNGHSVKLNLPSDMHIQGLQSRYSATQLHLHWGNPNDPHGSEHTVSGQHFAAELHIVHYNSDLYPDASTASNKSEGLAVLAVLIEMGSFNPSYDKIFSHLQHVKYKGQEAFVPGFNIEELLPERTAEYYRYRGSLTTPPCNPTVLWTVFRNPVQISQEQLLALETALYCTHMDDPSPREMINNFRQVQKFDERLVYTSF
T8 sequence (P43166 whole entry): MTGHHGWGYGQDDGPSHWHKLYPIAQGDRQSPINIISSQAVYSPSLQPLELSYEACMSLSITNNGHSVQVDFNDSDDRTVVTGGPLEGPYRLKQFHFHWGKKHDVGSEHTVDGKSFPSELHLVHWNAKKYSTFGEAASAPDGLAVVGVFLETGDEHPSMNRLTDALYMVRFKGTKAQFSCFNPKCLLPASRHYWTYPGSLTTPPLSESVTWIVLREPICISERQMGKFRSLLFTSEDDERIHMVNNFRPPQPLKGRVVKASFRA
T12 sequence (Q9ULX7 20-278 limits assumed): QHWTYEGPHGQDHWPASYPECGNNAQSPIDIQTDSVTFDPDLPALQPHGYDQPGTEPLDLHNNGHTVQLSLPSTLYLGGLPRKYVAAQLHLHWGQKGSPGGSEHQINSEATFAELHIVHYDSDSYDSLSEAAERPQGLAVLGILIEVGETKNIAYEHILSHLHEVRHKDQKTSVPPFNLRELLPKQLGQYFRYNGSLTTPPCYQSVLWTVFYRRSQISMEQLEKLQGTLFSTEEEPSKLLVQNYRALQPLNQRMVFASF
T11 sequence (Q8N1Q1 whole entry): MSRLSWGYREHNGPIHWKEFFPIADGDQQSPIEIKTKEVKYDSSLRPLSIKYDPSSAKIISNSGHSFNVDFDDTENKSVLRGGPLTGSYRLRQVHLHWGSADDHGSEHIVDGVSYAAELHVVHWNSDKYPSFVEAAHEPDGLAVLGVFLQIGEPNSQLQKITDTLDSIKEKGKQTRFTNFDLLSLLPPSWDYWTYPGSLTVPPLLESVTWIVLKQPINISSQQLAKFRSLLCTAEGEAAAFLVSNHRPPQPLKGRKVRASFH
T1 sequence (P00915 whole entry): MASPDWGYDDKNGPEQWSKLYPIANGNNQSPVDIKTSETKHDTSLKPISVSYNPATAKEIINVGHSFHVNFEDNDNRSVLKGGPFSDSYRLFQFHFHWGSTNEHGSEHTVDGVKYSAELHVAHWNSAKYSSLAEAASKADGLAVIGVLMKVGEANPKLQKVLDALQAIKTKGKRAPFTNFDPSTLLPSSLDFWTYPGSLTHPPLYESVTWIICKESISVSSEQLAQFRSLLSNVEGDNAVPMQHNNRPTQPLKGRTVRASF
T4 sequence (P22748 19-312): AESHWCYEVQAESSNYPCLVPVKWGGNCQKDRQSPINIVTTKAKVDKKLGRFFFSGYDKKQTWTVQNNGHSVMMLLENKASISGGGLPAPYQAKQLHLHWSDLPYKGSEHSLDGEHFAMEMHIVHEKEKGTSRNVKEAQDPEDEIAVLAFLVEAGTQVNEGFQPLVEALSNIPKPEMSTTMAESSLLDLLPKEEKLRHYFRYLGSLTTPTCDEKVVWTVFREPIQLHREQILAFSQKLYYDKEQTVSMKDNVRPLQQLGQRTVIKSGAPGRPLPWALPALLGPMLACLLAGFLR
T5 sequence (P35218 39-305): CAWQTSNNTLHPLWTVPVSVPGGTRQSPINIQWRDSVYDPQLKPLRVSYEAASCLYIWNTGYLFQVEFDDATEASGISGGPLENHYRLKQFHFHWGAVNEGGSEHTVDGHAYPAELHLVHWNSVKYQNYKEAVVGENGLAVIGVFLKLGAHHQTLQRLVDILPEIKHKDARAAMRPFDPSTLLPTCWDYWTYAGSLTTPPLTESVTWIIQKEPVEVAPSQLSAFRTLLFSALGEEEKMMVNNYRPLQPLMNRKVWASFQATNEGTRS
T3 sequence (P07451 whole entry): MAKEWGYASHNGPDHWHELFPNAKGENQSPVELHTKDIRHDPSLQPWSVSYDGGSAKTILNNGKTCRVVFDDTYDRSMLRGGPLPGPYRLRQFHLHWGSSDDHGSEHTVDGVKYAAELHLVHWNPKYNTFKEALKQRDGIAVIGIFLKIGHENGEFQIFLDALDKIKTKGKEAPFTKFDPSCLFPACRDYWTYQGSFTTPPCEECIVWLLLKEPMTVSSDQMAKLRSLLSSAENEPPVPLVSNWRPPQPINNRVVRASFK
T6 sequence (Q9Y2D0 34-317): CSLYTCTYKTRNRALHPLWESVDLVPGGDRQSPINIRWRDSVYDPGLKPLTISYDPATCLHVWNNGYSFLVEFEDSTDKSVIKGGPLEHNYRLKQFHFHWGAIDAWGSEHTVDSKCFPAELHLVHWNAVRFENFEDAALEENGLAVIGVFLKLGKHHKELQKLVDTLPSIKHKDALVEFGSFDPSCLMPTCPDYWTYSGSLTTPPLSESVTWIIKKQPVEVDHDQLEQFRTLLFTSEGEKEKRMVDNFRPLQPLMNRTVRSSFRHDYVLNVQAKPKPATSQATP
T7 sequence (P23280 18-308): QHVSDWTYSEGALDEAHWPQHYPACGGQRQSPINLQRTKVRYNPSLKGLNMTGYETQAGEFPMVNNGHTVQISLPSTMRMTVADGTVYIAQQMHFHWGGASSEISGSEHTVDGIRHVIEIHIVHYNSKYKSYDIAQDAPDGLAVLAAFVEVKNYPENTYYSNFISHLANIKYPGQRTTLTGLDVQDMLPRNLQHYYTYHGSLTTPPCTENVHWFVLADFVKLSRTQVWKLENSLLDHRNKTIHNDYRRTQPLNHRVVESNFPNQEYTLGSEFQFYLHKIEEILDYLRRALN

## NS(=O)(=O)c1c(F)c(F)c(S(=O)(=O)CCC(=O)O)c(NC2CCCCCCC2)c1F [GZ18-23, 3-((2-(cyclooctylamino)-3,5,6-trifluoro-4-sulfamoylphenyl)sulfonyl)propanoic acid]
[1]
  Kd: 5000 nM
[2]
  Kd: 160 nM
[3]
  Kd: > 200000 nM
[4]
  Kd: 120 nM
[5]
  Kd: 12500 nM
[6]
  Kd: 160 nM
[7]
  Kd: 140 nM
[8]
  Kd: 43 nM
[9]; TSA, 37 °C, pH 7.0, observed (not intrinsic), read-out: Kd CAIX
  Kd: 0.033 nM
[9]; ratio of Kd
  selectivity for CAIX over CAVII: 1000 ×
  selectivity for CAIX over CAXII: 30 fold
  selectivity for CAIX over CAXIII: 300 ×
  selectivity for CAIX over CAXIV: 100 fold
  selectivity for CAIX over the remaining CA isozymes: more than 3000 ×
[9]; recombinant CAIX, read-out: Kd for CAIX
  Kd: 0.03 nM
[9]; recombinantly purified CAIX, read-out: Kd for purified CAIX by TSA
  Kd: 0.033 nM
[10]
  Kd: 1 nM and 1.4 nM
[11]
  Kd: 10 nM
[12]
  Kd: 3.3 nM
[13]; Homo sapiens, hypoxic HeLa cells, gas-analysis MS, read-out: k, inhibition of CA activity (Hill fit)
  IC50: 0.92 nM
[13]; hypoxic HeLa WT cells
  overall CA activity remaining uninhibited: approximately 20%
[14]
  effect on CA activity: no effect
[15]
  viability of hypoxic HeLa cells: did not affect the viability
[16]; 10 nM GZ19-32, Fig. 12
  dosing midpoint of competition curve: around 10 nM
[16]; HeLa cells grown under hypoxia, mixture with 10 nM GZ19-32, 20 min incubation, read-out: KdA, nM (competitive binding model)
  Kd: 0.3 nM
[16]; lower affinity on cells
  difference between affinity for CAIX on cells and purified CAIX: 3 to 10 factor
other
  melting point: 143 to 144 °C
[17]
  Kd: 0.22 nM

— paper PMC9586938, “Picomolar fluorescent probes for compound affinity determination to carbonic anhydrase IX expressed in live cancer cells” (Scientific Reports, 2022)
